# Patent US20260176266A1, “PIPERIDINOPYRIMIDINE DERIVATIVE, PREPARATION METHOD THEREFOR AND USE THEREOF IN MEDICINE” (TUOJIE BIOTECH (SHANGHAI) CO., LTD., priority 2022, published 2026)
# Columns and labels:
# [1] = test system: OVCAR3 ovarian cancer cells; experiment: Inhibitory activity against ovarian cancer cells (OVCAR3), CellTiter-Glo viability; type: cell-based; conditions: Homo sapiens, OVCAR-3, 120 h, OVCAR3, 5 days treatment
# Experimental: OVCAR3 ovarian cancer cells were cultured in a cell incubator at […] with 5% CO2 using RPMI 1640 medium with […]. On the first day, the cells were plated in a 96-well plate at a cell concentration of 2500 cells/well and cultured overnight in the incubator. On the second day, the cells were treated with compounds. The maximum compound concentration was 10 μM and was 3-fold diluted to obtain 9 concentrations, and the final concentration of DMSO was 0.1%. After the cells were cultured in the incubator for another 5 days, cell viability was tested using the Celltiter Glo assay kit (Promega), and the testing method was consistent with the operational method provided by the kit. Data were processed using GraphPad Prism 8, and IC50 was calculated.
# (§1) [formula] • X: the logarithm of the compound concentration; Y: % inhibition.
# [2] = molecular target: CDK1/CyclinB (Homo sapiens, UniProt P06493); experiment: ADP-Glo kinase assay, CDK1; type: biochemical; conditions: 16.5 nM CDK1/CyclinB, 20 μM ATP (Km), Histone H1, 120 min; read-out: inhibitory activity (IC50, nM) CDK1
# Sequence of CDK1/CyclinB (P06493 whole entry, species assumed): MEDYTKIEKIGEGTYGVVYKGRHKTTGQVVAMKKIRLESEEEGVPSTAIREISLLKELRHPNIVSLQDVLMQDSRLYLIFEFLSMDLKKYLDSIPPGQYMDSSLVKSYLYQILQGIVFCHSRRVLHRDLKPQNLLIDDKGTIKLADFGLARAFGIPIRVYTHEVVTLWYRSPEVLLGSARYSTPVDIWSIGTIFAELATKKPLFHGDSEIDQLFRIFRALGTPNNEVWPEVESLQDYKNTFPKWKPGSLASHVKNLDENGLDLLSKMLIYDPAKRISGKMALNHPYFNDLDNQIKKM
# Sequence of CDK1/CyclinB (P14635 whole entry partner, species assumed): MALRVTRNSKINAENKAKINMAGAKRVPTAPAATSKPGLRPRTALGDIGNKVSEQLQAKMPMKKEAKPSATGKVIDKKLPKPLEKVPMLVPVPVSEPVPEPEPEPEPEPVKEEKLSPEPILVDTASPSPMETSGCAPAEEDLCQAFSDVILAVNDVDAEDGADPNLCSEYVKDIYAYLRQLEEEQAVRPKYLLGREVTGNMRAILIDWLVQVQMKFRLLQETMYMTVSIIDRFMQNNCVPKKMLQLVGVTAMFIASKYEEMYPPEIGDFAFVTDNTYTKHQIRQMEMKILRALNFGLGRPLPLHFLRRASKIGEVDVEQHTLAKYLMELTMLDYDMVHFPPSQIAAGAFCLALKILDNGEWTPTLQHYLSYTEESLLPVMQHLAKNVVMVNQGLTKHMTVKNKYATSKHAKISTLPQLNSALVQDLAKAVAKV
# Experimental: (§2) The ADP-Glo kinase assay was used for testing the activity of CDKs. The compounds were diluted in 384-well plates using Echo. The starting concentration was 10 μM and was 3-fold diluted to obtain 10 concentration points, each tested in duplicate, and the final concentration of DMSO in the assay system was 1%. CDK solutions (the final concentrations were 16.5 nM CDK1/CyclinB, 1 nM CDK2/CyclinE1, 16.3 nM CDK4/CyclinD1, 11.5 nM CDK5/p25, 15.7 nM CDK6/CyclinD3, 80 nM CDK7/Cyclin H/MAT1, 15.3 nM CDK9/Cyclin T1, and 150 nM CDK12/CyclinK) prepared in assay buffer were added at 2.5 μL, and the enzymes and compounds were pre-incubated at room temperature for 10 min. ATP (the concentration was Km) & substrate solutions (20 μM ATP & 0.1 mg/mL Histone H1 Protein for CDK1/CyclinB, 15 μM ATP & 0.1 mg/mL Histone H1 Protein for CDK2/CyclinE1, 200 μM ATP & 0.2 mg/mL DYRKtide peptide for CDK4/CyclinD1, 10 μM ATP & 0.1 mg/mL Histone H1 Protein for CDK5/p25, 200 μM ATP & 0.1 mg/mL Histone H1 Protein for CDK6/CyclinD3, 70 μM ATP & 0.2 mg/mL MBP for CDK7/Cyclin H/MAT1, 60 μM ATP & 0.2 mg/mL PDKtide for CDK9/Cyclin T1, and 20 μM ATP & 80 μM pS7-CTD peptide for CDK12/CyclinK) prepared in assay buffer were added at 2.5 μL. […] Readings were taken using an Envision multimode microplate reader. Data were processed using GraphPad Prism 8, and IC50 was calculated. […]
# [3] = test system: HCT-116 colorectal cancer cells; experiment: Inhibitory activity against tumor cells, CellTiter-Glo: HCT-116; type: cell-based; conditions: Homo sapiens, 168 h, HCT-116, 7 days treatment
# Experimental: (§3) MCF7 (ATCC #HTB-22) and T47D (ATCC #HTB-133) breast cancer cells and PANC-1 (ATCC #CRL-1469) pancreatic cancer cells were purchased from ATCC. MDA-MB-231 (Cobioer #CBP60382), HCC1806 (Cobioer #CBP60373), and MDA-MB-468 (Cobioer #CBP60387) breast cancer cells, HCT-116 (Cobioer #CBP60028) colorectal cancer cells, and OCI-AML-3 (Cobioer #CBP60817) and MV-4-11 (Cobioer #CBP60522) leukemia cells were purchased from Nanjing Cobioer Biosciences Co., Ltd.
# (§4) OCI-AML-3 was cultured in RPMI 1640 medium with 20% FBS; HCC1806 and T47D were cultured in RPMI 1640 medium with 10% FBS; MCF7, MDA-MB-231, MDA-MB-468, and PANC-1 were cultured in DMEM medium with 10% FBS; MV-4-11 was cultured in IMDM medium with 20% FBS; HCT-116 was cultured in MC′5A medium with 10% FBS.
# (§5) Palbociclib-resistant cells were constructed on MCF7 parent cells, designated MCF7 Palbo-R, and the culture conditions were consistent with those of the parent cells. All tumor cells were cultured in a cell incubator at 37° C. with 5% CO2. The cells were seeded at corresponding cell densities (600 cells/well for MDA-MB-231; 500 cells/well for MDA-MB-468, PANC-1, and HCT-116; 200 cells/well for MCF7 and HCC1806; 800 cells/well for MCF7 Palbo-R; 3000 cells/well for OCI-AML-3 and MV-4-11) in 384-well plates and cultured overnight in the incubator. On the second day, the cells were treated with compounds. The maximum compound concentration was 10 μM and was 3-fold diluted to obtain 9 concentrations, each tested in duplicate, and the final concentration of DMSO was 0.1%. The cells continued to be cultured in the incubator, with MDA-MB-231, PANC-1, MDA-MB-468, OCI-AML-3, and MV-4-11 being treated with drugs for 5 days and HCC1806, MCF7, MCF7 Palbo-R, and HCT116 being treated with drugs for 7 days. Cell viability was tested using the Celltiter Glo assay kit (Promega), and the testing method was consistent with the operational method provided by the kit. Readings were taken using an Envision multimode microplate reader. Data were processed using GraphPad Prism 8, and IC50 was calculated.
# (§6) Y=Bottom+(Top−Bottom)/(1+10^((Log IC50−X)×HillSlope)). Calculation formula: • X: the logarithm of the compound concentration; Y: % inhibition.
# [4] = molecular target: CDK9/Cyclin T1 (Homo sapiens, UniProt P50750); experiment: ADP-Glo kinase assay, CDK9; type: biochemical; conditions: 15.3 nM CDK9/Cyclin T1, 60 μM ATP (Km), PDKtide, 120 min; read-out: inhibitory activity (IC50, nM) CDK9
# Sequence of CDK9/Cyclin T1 (P50750 whole entry, species assumed): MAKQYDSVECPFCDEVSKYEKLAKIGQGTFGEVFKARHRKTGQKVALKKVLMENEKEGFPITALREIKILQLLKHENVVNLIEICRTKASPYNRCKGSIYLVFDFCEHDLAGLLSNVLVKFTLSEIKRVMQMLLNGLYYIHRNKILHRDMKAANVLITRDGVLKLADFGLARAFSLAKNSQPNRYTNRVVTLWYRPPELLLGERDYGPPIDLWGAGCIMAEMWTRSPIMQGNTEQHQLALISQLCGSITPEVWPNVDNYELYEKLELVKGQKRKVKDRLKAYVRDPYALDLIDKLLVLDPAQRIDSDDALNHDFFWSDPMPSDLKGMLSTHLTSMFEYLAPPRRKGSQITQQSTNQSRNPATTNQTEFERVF
# Sequence of CDK9/Cyclin T1 (O60563 whole entry partner, species assumed): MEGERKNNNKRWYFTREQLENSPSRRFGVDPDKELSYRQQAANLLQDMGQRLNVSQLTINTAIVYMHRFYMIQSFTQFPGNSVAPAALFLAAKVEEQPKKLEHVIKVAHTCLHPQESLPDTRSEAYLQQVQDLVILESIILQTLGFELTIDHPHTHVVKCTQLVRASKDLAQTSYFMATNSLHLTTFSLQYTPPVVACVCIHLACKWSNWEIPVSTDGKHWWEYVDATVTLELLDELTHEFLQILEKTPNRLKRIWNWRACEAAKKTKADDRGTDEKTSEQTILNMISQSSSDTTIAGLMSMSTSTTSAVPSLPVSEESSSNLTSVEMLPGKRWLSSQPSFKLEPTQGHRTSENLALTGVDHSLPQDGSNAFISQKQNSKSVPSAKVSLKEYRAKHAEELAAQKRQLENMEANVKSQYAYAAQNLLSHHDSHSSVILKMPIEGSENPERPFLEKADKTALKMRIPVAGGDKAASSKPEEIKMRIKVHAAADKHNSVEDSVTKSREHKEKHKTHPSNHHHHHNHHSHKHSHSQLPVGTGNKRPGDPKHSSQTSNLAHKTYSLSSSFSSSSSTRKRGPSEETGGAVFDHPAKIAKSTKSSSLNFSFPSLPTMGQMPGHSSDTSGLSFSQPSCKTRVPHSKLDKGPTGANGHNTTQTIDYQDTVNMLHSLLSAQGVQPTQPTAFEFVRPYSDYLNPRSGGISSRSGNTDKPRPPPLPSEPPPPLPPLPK
# Experimental: as §2
# [5] = molecular target: CDK2/CyclinE1 (Homo sapiens, UniProt P24941); experiment: ADP-Glo kinase assay, CDK2; type: biochemical; conditions: 1 nM CDK2/CyclinE1, 15 μM ATP (Km), Histone H1, 60 min; read-out: inhibitory activity (IC50, nM) CDK2
# Experimental: The ADP-Glo kinase assay was used for testing the activity of CDKs. The compounds were diluted in 384-well plates using Echo. The starting concentration was 10 μM and was 3-fold diluted to obtain 10 concentration points, each tested in duplicate, and the final concentration of DMSO in the assay system was 1%. CDK solutions (the final concentrations were 16.5 nM CDK1/CyclinB, 1 nM CDK2/CyclinE1, 16.3 nM CDK4/CyclinD1, 11.5 nM CDK5/p25, 15.7 nM CDK6/CyclinD3, 80 nM CDK7/Cyclin H/MAT1, 15.3 nM CDK9/Cyclin T1, and 150 nM CDK12/CyclinK) prepared in assay buffer were added at 2.5 μL, and the enzymes and compounds were pre-incubated at room temperature for 10 min. ATP (the concentration was Km) & substrate solutions (20 μM ATP & 0.1 mg/mL Histone H1 Protein for CDK1/CyclinB, 15 μM ATP & 0.1 mg/mL Histone H1 Protein for CDK2/CyclinE1, 200 μM ATP & 0.2 mg/mL DYRKtide peptide for CDK4/CyclinD1, 10 μM ATP & 0.1 mg/mL Histone H1 Protein for CDK5/p25, 200 μM ATP & 0.1 mg/mL Histone H1 Protein for CDK6/CyclinD3, 70 μM ATP & 0.2 mg/mL MBP for CDK7/Cyclin H/MAT1, 60 μM ATP & 0.2 mg/mL PDKtide for CDK9/Cyclin T1, and 20 μM ATP & 80 μM pS7-CTD peptide for CDK12/CyclinK) prepared in assay buffer were added at 2.5 μL. After thorough mixing, the plates were incubated at room temperature, with CDK1/4/9/12/13 incubated for 120 min and CDK2/5/6/7 incubated for 60 min. ADP-Glo reagents were added at 4 μL, and the plates were incubated at room temperature for 40 min. Kinase detection reagents were added at 8 μL, and the plates were incubated at room temperature for 40 min. Readings were taken using an Envision multimode microplate reader. Data were processed using GraphPad Prism 8, and IC50 was calculated.
# as §1
# [6] = test system: MV-4-11 leukemia cells; experiment: Inhibitory activity against tumor cells, CellTiter-Glo: MV-4-11; type: cell-based; conditions: Homo sapiens, MV4-11, 120 h, MV-4-11, 5 days treatment
# Experimental: as §3, §4
# as §5, with “calculated. […]” for “calculated.”
# [7] = test system: MCF7 breast cancer cells; experiment: Inhibitory activity against tumor cells, CellTiter-Glo: MCF7; type: cell-based; conditions: Homo sapiens, 168 h, MCF7, 7 days treatment
# Experimental: as §3, §4
# as §5, with “calculated. […]” for “calculated.”
# [8] = test system: T47D breast cancer cells; experiment: Inhibitory activity against tumor cells, CellTiter-Glo: T47D; type: cell-based; conditions: Homo sapiens
# Experimental: as §3, §4, §5, §6
SMILES,IC50 [1] [nM],IC50 [2] [nM],IC50 [3] [nM],IC50 [4] [nM],IC50 [5] [nM],IC50 [6] [nM],IC50 [7] [nM],IC50 [8] [nM]
"C[C@@H]1Cc2cnc(NCc3ccn(C)n3)nc2CN1C(=O)N[C@H](CN(C)C)c1ccccc1 [Example 2, (R)—N—((S)-2-(Dimethylamino)-1-phenylethyl)-6-methyl-2-(((1-methyl-TH-pyrazol-3-yl)methyl)amino)-5,8-dihydropyrido[3,4-d]pyrimidine-7(6H)-carboxamide]",24.2,> 10000,75.6,1580,2330,18.2,14.6,31
"C[C@H](Nc1ncc2c(n1)CN(C(=O)N[C@H](CN(C)C)c1ccccc1)[C@H](C)C2)c1ccccn1 [Example 6, (R)—N—((S)-2-(Dimethylamino)-1-phenylethyl)-6-methyl-2-(((S)-1-(pyridin-2-yl)ethyl)amino)-5,8-dihydropyrido[3,4-d]pyrimidine-7(6H)-carboxamide]",27.7,> 10000,46.9,4270,1900,19.1,11.8,22.2
